{"source": "PubChem BioAssay (NCI)", "test_in_all_cases": "NCI-60 cell line screen, 384-well format", "key": {"NCI-H322M lung": {"test_system": "NCI-H322M lung"}, "EKVX NSCLC": {"test_system": "EKVX NSCLC"}, "TK-10 renal": {"test_system": "TK-10 renal"}, "MOLT-4 leukemia": {"test_system": "MOLT-4 leukemia"}, "LOX IMVI melanoma": {"test_system": "LOX IMVI melanoma"}, "SK-MEL-5 melanoma": {"test_system": "SK-MEL-5 melanoma"}, "OVCAR-3 ovarian": {"test_system": "OVCAR-3 ovarian"}, "SF-268 CNS": {"test_system": "SF-268 CNS"}, "IGROV1 ovarian": {"test_system": "IGROV1 ovarian"}, "SW-620 colon": {"test_system": "SW-620 colon"}, "HT29 colon": {"test_system": "HT29 colon"}, "SK-OV-3 ovarian": {"test_system": "SK-OV-3 ovarian"}, "DU-145 prostate": {"test_system": "DU-145 prostate"}, "MALME-3M melanoma": {"test_system": "MALME-3M melanoma"}, "COLO 205 colon": {"test_system": "COLO 205 colon"}, "SNB-19 CNS": {"test_system": "SNB-19 CNS"}, "U251 glioblastoma": {"test_system": "U251 glioblastoma"}, "SNB-75 CNS": {"test_system": "SNB-75 CNS"}, "BT-549 breast": {"test_system": "BT-549 breast"}, "UACC-62 melanoma": {"test_system": "UACC-62 melanoma"}, "HS 578T breast": {"test_system": "HS 578T breast"}, "ACHN renal": {"test_system": "ACHN renal"}, "HCT-15 colon": {"test_system": "HCT-15 colon"}, "NCI-H460 NSCLC": {"test_system": "NCI-H460 NSCLC"}, "NCI-H522 lung": {"test_system": "NCI-H522 lung"}, "MDA-MB-231 breast": {"test_system": "MDA-MB-231 breast"}, "RPMI-8226 leukemia": {"test_system": "RPMI-8226 leukemia"}, "SF-539 CNS": {"test_system": "SF-539 CNS"}, "PC-3 prostate": {"test_system": "PC-3 prostate"}, "OVCAR-8 ovarian": {"test_system": "OVCAR-8 ovarian"}, "A549 NSCLC": {"test_system": "A549 NSCLC"}, "HOP-62 NSCLC": {"test_system": "HOP-62 NSCLC"}, "OVCAR-4 ovarian": {"test_system": "OVCAR-4 ovarian"}, "T-47D breast": {"test_system": "T-47D breast"}, "HL-60(TB) leukemia": {"test_system": "HL-60(TB) leukemia"}, "MDA-MB-468 breast": {"test_system": "MDA-MB-468 breast"}, "KM12 colon": {"test_system": "KM12 colon"}, "UACC-257 melanoma": {"test_system": "UACC-257 melanoma"}, "MDA-MB-435 melanoma": {"test_system": "MDA-MB-435 melanoma"}, "UO-31 renal": {"test_system": "UO-31 renal"}, "NCI/ADR-RES ovarian": {"test_system": "NCI/ADR-RES ovarian"}, "K-562 leukemia": {"test_system": "K-562 leukemia"}, "A498 renal": {"test_system": "A498 renal"}, "M14 melanoma": {"test_system": "M14 melanoma"}, "CAKI-1 renal": {"test_system": "CAKI-1 renal"}}, "note": "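GI50: concentration for 50% inhibition of growth. TGI: concentration producing complete growth inhibition.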", "data": [{"smiles": "Cc1cc(-c2ncc(-c3cccnc3)cc2/C=C/c2ccccc2)cnc1-c1cccnc1", "values": [{"measurement": "GI50", "setting": "NCI-H322M lung", "value": 2.29, "unit": "µM"}, {"measurement": "TGI", "setting": "NCI-H322M lung", "value": 5.49, "unit": "µM"}, {"measurement": "GI50", "setting": "EKVX NSCLC", "value": 3.15, "unit": "µM"}, {"measurement": "GI50", "setting": "TK-10 renal", "value": 3.24, "unit": "µM"}, {"measurement": "GI50", "setting": "MOLT-4 leukemia", "value": 1.13, "unit": "µM"}, {"measurement": "TGI", "setting": "MOLT-4 leukemia", "value": 2.34, "unit": "µM"}, {"measurement": "GI50", "setting": "LOX IMVI melanoma", "value": 2.22, "unit": "µM"}, {"measurement": "TGI", "setting": "LOX IMVI melanoma", "value": 5.08, "unit": "µM"}, {"measurement": "GI50", "setting": "SK-MEL-5 melanoma", "value": 1.12, "unit": "µM"}, {"measurement": "TGI", "setting": "SK-MEL-5 melanoma", "value": 2.57, "unit": "µM"}, {"measurement": "GI50", "setting": "OVCAR-3 ovarian", "value": 2.37, "unit": "µM"}, {"measurement": "TGI", "setting": "OVCAR-3 ovarian", "value": 5.95, "unit": "µM"}, {"measurement": "GI50", "setting": "SF-268 CNS", "value": 3.68, "unit": "µM"}, {"measurement": "TGI", "setting": "SF-268 CNS", "value": 15.3, "unit": "µM"}, {"measurement": "GI50", "setting": "IGROV1 ovarian", "value": 3.72, "unit": "µM"}, {"measurement": "GI50", "setting": "SW-620 colon", "value": 3.93, "unit": "µM"}, {"measurement": "GI50", "setting": "HT29 colon", "value": 3.69, "unit": "µM"}, {"measurement": "GI50", "setting": "SK-OV-3 ovarian", "value": 3.17, "unit": "µM"}, {"measurement": "TGI", "setting": "SK-OV-3 ovarian", "value": 11.3, "unit": "µM"}, {"measurement": "GI50", "setting": "DU-145 prostate", "value": 1.81, "unit": "µM"}, {"measurement": "TGI", "setting": "DU-145 prostate", "value": 3.55, "unit": "µM"}, {"measurement": "GI50", "setting": "MALME-3M melanoma", "value": 2.53, "unit": "µM"}, {"measurement": "TGI", "setting": "MALME-3M melanoma", "value": 6.85, "unit": "µM"}, {"measurement": "GI50", "setting": "COLO 205 colon", "value": 6.06, "unit": "µM"}, {"measurement": "GI50", "setting": "SNB-19 CNS", "value": 3.82, "unit": "µM"}, {"measurement": "TGI", "setting": "SNB-19 CNS", "value": 19.6, "unit": "µM"}, {"measurement": "GI50", "setting": "U251 glioblastoma", "value": 3.8, "unit": "µM"}, {"measurement": "GI50", "setting": "SNB-75 CNS", "value": 3.07, "unit": "µM"}, {"measurement": "TGI", "setting": "SNB-75 CNS", "value": 16.7, "unit": "µM"}, {"measurement": "GI50", "setting": "BT-549 breast", "value": 2.32, "unit": "µM"}, {"measurement": "TGI", "setting": "BT-549 breast", "value": 9.63, "unit": "µM"}, {"measurement": "GI50", "setting": "UACC-62 melanoma", "value": 2.16, "unit": "µM"}, {"measurement": "TGI", "setting": "UACC-62 melanoma", "value": 7.5, "unit": "µM"}, {"measurement": "GI50", "setting": "HS 578T breast", "value": 1.6, "unit": "µM"}, {"measurement": "TGI", "setting": "HS 578T breast", "value": 3.56, "unit": "µM"}, {"measurement": "GI50", "setting": "ACHN renal", "value": 3.79, "unit": "µM"}, {"measurement": "GI50", "setting": "HCT-15 colon", "value": 3.54, "unit": "µM"}, {"measurement": "GI50", "setting": "NCI-H460 NSCLC", "value": 1.93, "unit": "µM"}, {"measurement": "TGI", "setting": "NCI-H460 NSCLC", "value": 3.46, "unit": "µM"}, {"measurement": "GI50", "setting": "NCI-H522 lung", "value": 2.02, "unit": "µM"}, {"measurement": "TGI", "setting": "NCI-H522 lung", "value": 5.12, "unit": "µM"}, {"measurement": "GI50", "setting": "MDA-MB-231 breast", "value": 4.15, "unit": "µM"}, {"measurement": "TGI", "setting": "MDA-MB-231 breast", "value": 22.5, "unit": "µM"}, {"measurement": "GI50", "setting": "RPMI-8226 leukemia", "value": 0.62, "unit": "µM"}, {"measurement": "TGI", "setting": "RPMI-8226 leukemia", "value": 2.37, "unit": "µM"}, {"measurement": "GI50", "setting": "SF-539 CNS", "value": 3.76, "unit": "µM"}, {"measurement": "GI50", "setting": "PC-3 prostate", "value": 2.04, "unit": "µM"}, {"measurement": "TGI", "setting": "PC-3 prostate", "value": 4.58, "unit": "µM"}, {"measurement": "GI50", "setting": "OVCAR-8 ovarian", "value": 2.41, "unit": "µM"}, {"measurement": "TGI", "setting": "OVCAR-8 ovarian", "value": "> 100", "unit": "µM"}, {"measurement": "GI50", "setting": "A549 NSCLC", "value": 3.33, "unit": "µM"}, {"measurement": "TGI", "setting": "A549 NSCLC", "value": "> 100", "unit": "µM"}, {"measurement": "GI50", "setting": "HOP-62 NSCLC", "value": 1.85, "unit": "µM"}, {"measurement": "TGI", "setting": "HOP-62 NSCLC", "value": 4.11, "unit": "µM"}, {"measurement": "GI50", "setting": "OVCAR-4 ovarian", "value": 2.75, "unit": "µM"}, {"measurement": "TGI", "setting": "OVCAR-4 ovarian", "value": 9.25, "unit": "µM"}, {"measurement": "GI50", "setting": "T-47D breast", "value": 1.93, "unit": "µM"}, {"measurement": "TGI", "setting": "T-47D breast", "value": 8.06, "unit": "µM"}, {"measurement": "GI50", "setting": "HL-60(TB) leukemia", "value": 1.32, "unit": "µM"}, {"measurement": "TGI", "setting": "HL-60(TB) leukemia", "value": 2.59, "unit": "µM"}, {"measurement": "GI50", "setting": "MDA-MB-468 breast", "value": 3.34, "unit": "µM"}, {"measurement": "GI50", "setting": "KM12 colon", "value": 3.15, "unit": "µM"}, {"measurement": "TGI", "setting": "KM12 colon", "value": 12.1, "unit": "µM"}, {"measurement": "GI50", "setting": "UACC-257 melanoma", "value": 6.52, "unit": "µM"}, {"measurement": "GI50", "setting": "MDA-MB-435 melanoma", "value": 6.49, "unit": "µM"}, {"measurement": "GI50", "setting": "UO-31 renal", "value": 2.99, "unit": "µM"}, {"measurement": "GI50", "setting": "NCI/ADR-RES ovarian", "value": 2.19, "unit": "µM"}, {"measurement": "TGI", "setting": "NCI/ADR-RES ovarian", "value": 5.42, "unit": "µM"}, {"measurement": "GI50", "setting": "K-562 leukemia", "value": 3, "unit": "µM"}, {"measurement": "TGI", "setting": "K-562 leukemia", "value": 32.2, "unit": "µM"}, {"measurement": "GI50", "setting": "A498 renal", "value": 2.78, "unit": "µM"}, {"measurement": "TGI", "setting": "A498 renal", "value": 9.16, "unit": "µM"}, {"measurement": "GI50", "setting": "M14 melanoma", "value": 3.76, "unit": "µM"}, {"measurement": "TGI", "setting": "M14 melanoma", "value": 12.6, "unit": "µM"}, {"measurement": "GI50", "setting": "CAKI-1 renal", "value": 3.04, "unit": "µM"}, {"measurement": "TGI", "setting": "CAKI-1 renal", "value": 21.4, "unit": "µM"}]}]}
